Laboratory results taken from PubChem BioAssay AID1963968 (Molecular Pharmacology Branch, DTP, NCI, 2024).

Test system: 945468-187-T-J3-PDC spheroids with HUVEC/MSC, viability
Experiment: Anticancer human tumor 945468-187-T-J3-PDC patient-derived rectal carcinoma cell line growth inhibition [PI3K]
Conditions: for IC50: curve of first compound; for viability, T/C: stronger effect = lower value
Summary of the method: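 Spheroid viability read-out. Co-cultures contained the tumor line plus HUVEC and human MSCs. Each agent was paired with a PI3K inhibitor (inavolisib, alpelisib, duvelisib, copanlisib) across half-log dilutions starting at clinical Cmax, or at 10 microM when Cmax was unknown.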

[1] = second compound 0.0316 µM, first compound 0.000316 µM
[2] = second compound 0.0316 µM, first compound 0.001 µM
[3] = second compound 0.0316 µM, first compound 0.00316 µM
[4] = second compound 0.0316 µM, first compound 0.01 µM
[5] = second compound 0.0316 µM, first compound 0.0316 µM
[6] = second compound 0.0316 µM, first compound 0.1 µM
[7] = second compound 0.1 µM, first compound 0.000316 µM
[8] = second compound 0.1 µM, first compound 0.001 µM
[9] = second compound 0.1 µM, first compound 0.00316 µM
[10] = second compound 0.1 µM, first compound 0.01 µM
[11] = second compound 0.1 µM, first compound 0.0316 µM
[12] = second compound 0.1 µM, first compound 0.1 µM
[13] = second compound 0.316 µM, first compound 0.000316 µM
[14] = second compound 0.316 µM, first compound 0.001 µM
[15] = second compound 0.316 µM, first compound 0.00316 µM
[16] = second compound 0.316 µM, first compound 0.01 µM
[17] = second compound 0.316 µM, first compound 0.0316 µM
[18] = second compound 0.316 µM, first compound 0.1 µM
[19] = second compound 1 µM, first compound 0.000316 µM
[20] = second compound 1 µM, first compound 0.001 µM
[21] = second compound 1 µM, first compound 0.00316 µM
[22] = second compound 1 µM, first compound 0.01 µM
[23] = second compound 1 µM, first compound 0.0316 µM
[24] = second compound 1 µM, first compound 0.1 µM
[25] = second compound 3.16 µM, first compound 0.000316 µM
[26] = second compound 3.16 µM, first compound 0.001 µM
[27] = second compound 3.16 µM, first compound 0.00316 µM
[28] = second compound 3.16 µM, first compound 0.01 µM
[29] = second compound 3.16 µM, first compound 0.0316 µM
[30] = second compound 3.16 µM, first compound 0.1 µM
[31] = second compound 10 µM, first compound 0.000316 µM
[32] = second compound 10 µM, first compound 0.001 µM
[33] = second compound 10 µM, first compound 0.00316 µM
[34] = second compound 10 µM, first compound 0.01 µM
[35] = second compound 10 µM, first compound 0.0316 µM
[36] = second compound 10 µM, first compound 0.1 µM
[37] = second compound 0.0316 µM, first compound 0.316 µM
[38] = second compound 0.0316 µM, first compound 1 µM
[39] = second compound 0.0316 µM, first compound 3.16 µM
[40] = second compound 0.0316 µM, first compound 10 µM
[41] = second compound 0.1 µM, first compound 0.316 µM
[42] = second compound 0.1 µM, first compound 1 µM
[43] = second compound 0.1 µM, first compound 3.16 µM
[44] = second compound 0.1 µM, first compound 10 µM
[45] = second compound 0.316 µM, first compound 0.316 µM
[46] = second compound 0.316 µM, first compound 1 µM
[47] = second compound 0.316 µM, first compound 3.16 µM
[48] = second compound 0.316 µM, first compound 10 µM
[49] = second compound 1 µM, first compound 0.316 µM
[50] = second compound 1 µM, first compound 1 µM
[51] = second compound 1 µM, first compound 3.16 µM
[52] = second compound 1 µM, first compound 10 µM
[53] = second compound 3.16 µM, first compound 0.316 µM
[54] = second compound 3.16 µM, first compound 1 µM
[55] = second compound 3.16 µM, first compound 3.16 µM
[56] = second compound 3.16 µM, first compound 10 µM
[57] = second compound 10 µM, first compound 0.316 µM
[58] = second compound 10 µM, first compound 1 µM
[59] = second compound 10 µM, first compound 3.16 µM
[60] = second compound 10 µM, first compound 10 µM
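Further: spheroids exposed to agents for 7 days before viability read.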
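Wherever viability, T/C is given: 100% = DMSO vehicle control viability.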

CC(=O)c1c(C)c2cnc(Nc3ccc(N4CCNCC4)cn3)nc2n(C2CCCC2)c1=O + CC(Nc1ncnc2nc[nH]c12)c1cc2cccc(Cl)c2c(=O)n1-c1ccccc1
IC50 (second compound 0.0316 µM): > 0.1 µM
IC50 (second compound 0.1 µM): > 0.1 µM
IC50 (second compound 0.316 µM): > 0.1 µM
IC50 (second compound 1 µM): > 0.1 µM
IC50 (second compound 3.16 µM): > 0.1 µM
IC50 (second compound 10 µM): > 0.1 µM
viability, T/C [1]: 102%
viability, T/C [2]: 87.6%
viability, T/C [3]: 106%
viability, T/C [4]: 92.5%
viability, T/C [5]: 96.6%
viability, T/C [6]: 92.6%
viability, T/C [7]: 91.4%
viability, T/C [8]: 100%
viability, T/C [9]: 87.5%
viability, T/C [10]: 91.4%
viability, T/C [11]: 99.1%
viability, T/C [12]: 113%
viability, T/C [13]: 111%
viability, T/C [14]: 89.2%
viability, T/C [15]: 94.1%
viability, T/C [16]: 94.5%
viability, T/C [17]: 99.3%
viability, T/C [18]: 98%
viability, T/C [19]: 98.3%
viability, T/C [20]: 93.5%
viability, T/C [21]: 86.5%
viability, T/C [22]: 93.2%
viability, T/C [23]: 102%
viability, T/C [24]: 89.4%
viability, T/C [25]: 95.2%
viability, T/C [26]: 95%
viability, T/C [27]: 99.1%
viability, T/C [28]: 98.6%
viability, T/C [29]: 105%
viability, T/C [30]: 93.8%
viability, T/C [31]: 106%
viability, T/C [32]: 107%
viability, T/C [33]: 106%
viability, T/C [34]: 108%
viability, T/C [35]: 106%
viability, T/C [36]: 103%

CC(C)n1nc(-c2ccc3oc(N)nc3c2)c2c(N)ncnc21 + CC(Nc1ncnc2nc[nH]c12)c1cc2cccc(Cl)c2c(=O)n1-c1ccccc1
IC50 (second compound 0.0316 µM): > 0.1 µM
IC50 (second compound 0.1 µM): > 0.1 µM
IC50 (second compound 0.316 µM): > 0.1 µM
IC50 (second compound 1 µM): > 0.1 µM
IC50 (second compound 3.16 µM): 0.0877 µM
IC50 (second compound 10 µM): 0.0707 µM
viability, T/C [1]: 105%
viability, T/C [2]: 101%
viability, T/C [3]: 95%
viability, T/C [4]: 99.1%
viability, T/C [5]: 93.2%
viability, T/C [6]: 62.2%
viability, T/C [7]: 122%
viability, T/C [8]: 103%
viability, T/C [9]: 101%
viability, T/C [10]: 91.9%
viability, T/C [11]: 105%
viability, T/C [12]: 50.5%
viability, T/C [13]: 99%
viability, T/C [14]: 89.1%
viability, T/C [15]: 102%
viability, T/C [16]: 97.1%
viability, T/C [17]: 104%
viability, T/C [18]: 59.5%
viability, T/C [19]: 99.7%
viability, T/C [20]: 98.4%
viability, T/C [21]: 98.3%
viability, T/C [22]: 112%
viability, T/C [23]: 96%
viability, T/C [24]: 51.1%
viability, T/C [25]: 104%
viability, T/C [26]: 89.8%
viability, T/C [27]: 99.1%
viability, T/C [28]: 101%
viability, T/C [29]: 103%
viability, T/C [30]: 43.6%
viability, T/C [31]: 103%
viability, T/C [32]: 96.9%
viability, T/C [33]: 93.5%
viability, T/C [34]: 87%
viability, T/C [35]: 89.3%
viability, T/C [36]: 33.7%

CC1(C)CCC(CN2CCN(c3ccc(C(=O)NS(=O)(=O)c4ccc(NCC5CCOCC5)c([N+](=O)[O-])c4)c(Oc4cnc5[nH]ccc5c4)c3)CC2)=C(c2ccc(Cl)cc2)C1 + CC(Nc1ncnc2nc[nH]c12)c1cc2cccc(Cl)c2c(=O)n1-c1ccccc1
IC50 (second compound 0.0316 µM): > 10 µM
IC50 (second compound 0.1 µM): > 10 µM
IC50 (second compound 0.316 µM): > 10 µM
IC50 (second compound 1 µM): > 10 µM
IC50 (second compound 3.16 µM): > 10 µM
IC50 (second compound 10 µM): > 10 µM
viability, T/C [5]: 99.2%
viability, T/C [6]: 91.9%
viability, T/C [37]: 95.7%
viability, T/C [38]: 96%
viability, T/C [39]: 117%
viability, T/C [40]: 114%
viability, T/C [11]: 94.4%
viability, T/C [12]: 95.8%
viability, T/C [41]: 98.7%
viability, T/C [42]: 102%
viability, T/C [43]: 105%
viability, T/C [44]: 106%
viability, T/C [17]: 111%
viability, T/C [18]: 106%
viability, T/C [45]: 104%
viability, T/C [46]: 118%
viability, T/C [47]: 113%
viability, T/C [48]: 104%
viability, T/C [23]: 100%
viability, T/C [24]: 94%
viability, T/C [49]: 92.6%
viability, T/C [50]: 98.6%
viability, T/C [51]: 110%
viability, T/C [52]: 110%
viability, T/C [29]: 100%
viability, T/C [30]: 107%
viability, T/C [53]: 95.4%
viability, T/C [54]: 109%
viability, T/C [55]: 115%
viability, T/C [56]: 98.2%
viability, T/C [35]: 105%
viability, T/C [36]: 95.6%
viability, T/C [57]: 97.3%
viability, T/C [58]: 103%
viability, T/C [59]: 120%
viability, T/C [60]: 93.9%

CCCS(=O)(=O)Nc1ccc(F)c(C(=O)c2c[nH]c3ncc(-c4ccc(Cl)cc4)cc23)c1F + CC(Nc1ncnc2nc[nH]c12)c1cc2cccc(Cl)c2c(=O)n1-c1ccccc1
IC50 (second compound 0.0316 µM): 8.2 µM
IC50 (second compound 0.1 µM): > 10 µM
IC50 (second compound 0.316 µM): > 10 µM
IC50 (second compound 1 µM): > 10 µM
IC50 (second compound 3.16 µM): > 10 µM
IC50 (second compound 10 µM): > 10 µM
viability, T/C [5]: 100%
viability, T/C [6]: 96.7%
viability, T/C [37]: 103%
viability, T/C [38]: 101%
viability, T/C [39]: 99.2%
viability, T/C [40]: 39.8%
viability, T/C [11]: 104%
viability, T/C [12]: 95.8%
viability, T/C [41]: 93.8%
viability, T/C [42]: 91.3%
viability, T/C [43]: 111%
viability, T/C [44]: 77.9%
viability, T/C [17]: 102%
viability, T/C [18]: 101%
viability, T/C [45]: 91.7%
viability, T/C [46]: 99.3%
viability, T/C [47]: 98.3%
viability, T/C [48]: 60.6%
viability, T/C [23]: 88.6%
viability, T/C [24]: 92.8%
viability, T/C [49]: 89.4%
viability, T/C [50]: 92%
viability, T/C [51]: 101%
viability, T/C [52]: 68.7%
viability, T/C [29]: 92.6%
viability, T/C [30]: 91.3%
viability, T/C [53]: 102%
viability, T/C [54]: 105%
viability, T/C [55]: 105%
viability, T/C [56]: 56.5%
viability, T/C [35]: 91.3%
viability, T/C [36]: 99.4%
viability, T/C [57]: 94.8%
viability, T/C [58]: 92.2%
viability, T/C [59]: 105%
viability, T/C [60]: 94.1%

CNC(=O)c1ccc(N2C(=S)N(c3ccc(C#N)c(C(F)(F)F)c3)C(=O)C2(C)C)cc1F + CC(Nc1ncnc2nc[nH]c12)c1cc2cccc(Cl)c2c(=O)n1-c1ccccc1
IC50 (second compound 0.0316 µM): > 10 µM
IC50 (second compound 0.1 µM): > 10 µM
IC50 (second compound 0.316 µM): > 10 µM
IC50 (second compound 1 µM): > 10 µM
IC50 (second compound 3.16 µM): > 10 µM
IC50 (second compound 10 µM): > 10 µM
viability, T/C [5]: 101%
viability, T/C [6]: 113%
viability, T/C [37]: 98.4%
viability, T/C [38]: 102%
viability, T/C [39]: 98.4%
viability, T/C [40]: 100%
viability, T/C [11]: 99.7%
viability, T/C [12]: 109%
viability, T/C [41]: 94.1%
viability, T/C [42]: 116%
viability, T/C [43]: 103%
viability, T/C [44]: 106%
viability, T/C [17]: 99.5%
viability, T/C [18]: 93.8%
viability, T/C [45]: 100%
viability, T/C [46]: 108%
viability, T/C [47]: 101%
viability, T/C [48]: 97.1%
viability, T/C [23]: 96.5%
viability, T/C [24]: 102%
viability, T/C [49]: 107%
viability, T/C [50]: 106%
viability, T/C [51]: 105%
viability, T/C [52]: 94.8%
viability, T/C [29]: 102%
viability, T/C [30]: 113%
viability, T/C [53]: 95%
viability, T/C [54]: 107%
viability, T/C [55]: 92.9%
viability, T/C [56]: 110%
viability, T/C [35]: 99.5%
viability, T/C [36]: 99.2%
viability, T/C [57]: 107%
viability, T/C [58]: 99.2%
viability, T/C [59]: 105%
viability, T/C [60]: 109%
